Results: paper PMC10571751, “Polyarginine Cell-Penetrating Peptides Bind and Inhibit SERCA2” (Cells, 2023)
Where no end group is shown, it is not given here. The star is where a group is joined. Biotin = O=C1N[C@H]2[C@H](CS[C@H]2CCCCC(=O)*)N1

Columns and labels:
[1] = system: SERCA (rat EDL homogenates; SERCA1); assay: Oxalate-supported Ca2+ uptake, leak and releasable Ca2+ in rat EDL homogenates; type: biochemical, rat (Wistar); conditions: 40 µmol/L, 5 min, 37 °C, pH 7.0; without (Figure 4B) and with cargo (Figure 4D)
Description: Ca^2+ handling was also examined in homogenates prepared from mouse left ventricle, rat soleus, and rat extensor digitorum longus (EDL) muscles using methods described by O’Brien and modified by Li et al.. Freshly excised left ventricles and muscles were weighed and homogenized in ice cold homogenization buffer (1:10 wet weight/vol, pH 7.9) containing (in mmol/L) 300 sucrose, 5 NaN3, 1 EDTA, 40 L-histidine, 40 Tris HCl, and protease inhibitors (Complete EDTA-free No 05056489001, Roche, Mannheim, Germany). Homogenization was performed with a Polytron 1200 (Kinematica AG, Luzern, Switzerland) at 25,000 rpm for 3 × 20 s, with a 20 s break between bursts. Homogenates were then aliquoted, frozen in liquid N2, and stored at −80 °C until use. […]
Ca^2+ fluxes were monitored as Fura-2 fluorescence ratio (340 nm/390 nm) using a Hidex Sense Multimodal Microplate Reader (Kem-En-Tec Nordic AS, Uppsala, Sweden). […] The fluorescence ratio was calibrated to [Ca^2+] using the following equation: [Ca^2+] = Kd × ((R − Rmin)/(Rmax − R)) × (Sf2/Sb2), where R is the 340 nm/390 nm fluorescence ratio, and Kd is the dissociation constant of Fura-2 and Ca^2+ (224 nmol/L). Rmin is the fluorescence ratio at very low [Ca^2+] and Rmax is the ratio at saturating [Ca^2+], obtained by sequentially adding 3.3 mmol/L EGTA and 4.8 mmol/L CaCl2 to the well at the end of each recording. […]

[2] = system: SERCA (SR vesicles from mouse left ventricle; SERCA2a); assay: Oxalate-supported SR Ca2+ uptake and leak in mouse left ventricular homogenates (wild-type); type: biochemical, mouse (C57BL/6NT); conditions: 40 µmol/L CPP without cargo, 5 min, 37 °C, pH 7.0; uptake started with Na4ATP; Fura-2 340/390; nruns Ctr, TAT, Arg9, Arg11 = 69, 14, 23, 24
Description: (§1) Ca^2+ handling was also examined in homogenates prepared from mouse left ventricle, rat soleus, and rat extensor digitorum longus (EDL) muscles using methods described by O’Brien and modified by Li et al.. Freshly excised left ventricles and muscles were weighed and homogenized in ice cold homogenization buffer (1:10 wet weight/vol, pH 7.9) containing (in mmol/L) 300 sucrose, 5 NaN3, 1 EDTA, 40 L-histidine, 40 Tris HCl, and protease inhibitors (Complete EDTA-free No 05056489001, Roche, Mannheim, Germany). Homogenization was performed with a Polytron 1200 (Kinematica AG, Luzern, Switzerland) at 25,000 rpm for 3 × 20 s, with a 20 s break between bursts. Homogenates were then aliquoted, frozen in liquid N2, and stored at −80 °C until use.
(§2) 10–20 µL of freshly thawed and vortexed homogenate was added to 250 µL of “assay” buffer, containing (in mmol/L) 165 KCl, 22 Hepes, 7.5 oxalate, 11 NaN3, 0.0055 TPEN, 4.5 MgCl2, 9 Tris HCl, and 0.002 Fura-2 salt (pH 7.0, 37 °C). […]
(§3) Ca^2+ fluxes were monitored as Fura-2 fluorescence ratio (340 nm/390 nm) using a Hidex Sense Multimodal Microplate Reader (Kem-En-Tec Nordic AS, Uppsala, Sweden). […] The fluorescence ratio was calibrated to [Ca^2+] using the following equation: [Ca^2+] = Kd × ((R − Rmin)/(Rmax − R)) × (Sf2/Sb2), where R is the 340 nm/390 nm fluorescence ratio, and Kd is the dissociation constant of Fura-2 and Ca^2+ (224 nmol/L). Rmin is the fluorescence ratio at very low [Ca^2+] and Rmax is the ratio at saturating [Ca^2+], obtained by sequentially adding 3.3 mmol/L EGTA and 4.8 mmol/L CaCl2 to the well at the end of each recording. Sf2/Sb2 is the ratio of measured fluorescence intensity at 390 nm when Fura-2 is Ca^2+-free (3.3 mmol/L EGTA) or Ca^2+-bound (4.8 mmol/L CaCl2).
(§4) Ca^2+ recordings were smoothed using TableCurve 2D (V 5.01, Systat Software Inc., Palo Alto, CA, USA) prior to analysis. After the addition of Na4ATP, the rate constant for Ca^2+ uptake (k) was calculated by fitting the uptake curve to Ca^2+ = Ca^2+0 + ae^−t×k (Sigmaplot V14.0, Systat Software Inc.). […]

[3] = system: SERCA (rat soleus homogenates; SERCA2a); assay: Oxalate-supported Ca2+ uptake, leak and releasable Ca2+ in rat soleus homogenates; type: biochemical, rat (Wistar); conditions: 40 µmol/L CPP without cargo, 5 min, 37 °C, pH 7.0; nruns Ctr, TAT, Arg9, Arg11 = 6, 5, 6, 6
Description: as §1, §2, §3, §4

[4] = system: SERCA (SR vesicles from left ventricle of PLB knockout mice); assay: Oxalate-supported SR Ca2+ uptake and leak in left ventricular homogenates of phospholamban knockout mice; type: biochemical, mouse (phospholamban knockout); conditions: 40 µmol/L CPP without cargo, 5 min, 37 °C, pH 7.0; nruns Ctr, TAT, Arg9, Arg11 = 58, 12, 17, 15
Description: as §1, §2, §3, §4

[5] = system: rat left ventricular cardiomyocytes; assay: Field-stimulated whole-cell Ca2+ transients in isolated rat cardiomyocytes; type: cell-based, rat (Wistar); conditions: versus untreated Ctr, 5 µmol/L, 1 h preincubation, 1 Hz, 37 °C
Description: For single cell experiments, rat left ventricular cardiomyocytes were isolated as described previously. In brief, rats were anaesthetized by inhalation of a mixture of 5% isoflurane and 95% O2. Hearts were then rapidly excised and mounted via the aorta on a Langendorff apparatus to enable retrograde perfusion with buffer containing collagenase Type II (Worthington Biochemical Corporation, Lakewood, NJ, USA). Following digestion, the heart was cut down, diced, and agitated, and isolated cardiomyocytes were then filtered, washed, and sedimented. Cells were stored in a solution containing (in mmol/L) 130 NaCl, 5.4 KCl, 25 HEPES, 0.5 MgCl2, 0.4 NaH2PO4, 22 glucose, 0.2 CaCl2 (pH 7.40, 22 °C) until use, within 6 h of isolation.
Prior to experiments, cardiomyocytes were preincubated for 1 h with 5 µmol/L of the individual CPPs added to the cell storage solution. During the last 10 min of incubation, cells were additionally loaded with fluo-4 AM (5 µmol/L, Thermo Fisher Scientific, Waltham, MA, USA) for Ca^2+ imaging. The cells were then plated on the stage of an inverted microscope and perfused with HEPES-Tyrode solution containing (in mmol/L) 140 NaCl, 0.5 MgCl2, 5.0 HEPES, 5.5 glucose, 0.4 NaH2PO4, 5.4 KCl, and 1.8 CaCl2 at pH 7.4, 37 °C. Whole-cell Ca^2+ transients were recorded by wide-field photometry, as described previously, using a D-104 microscope photometer and photomultiplier tube (Horiba Ltd., Kyoto, Japan). During field stimulation at 1 Hz, fluorescence was excited by a 475 nm light-emitting diode, and emission was collected at >510 nm.
Ca^2+ signals were analysed by first subtracting background fluorescence values from the cellular recordings. Ca^2+ transient magnitude was calculated as peak fluorescence divided by resting fluorescence (F/F0). The decay time of Ca^2+ transients was assessed using a monoexponential fit of the declining phase of the Ca^2+ transient to calculate tau (s), using Clampfit 10.4 software (Molecular Devices LLC, Sunnyvale, CA, USA).

[6] = system: rat SERCA2a; assay: Oxalate-supported Ca2+ uptake in homogenates of HEK293 cells transfected with SERCA2a; type: biochemical; conditions: for Ca2+ uptake, SERCA2a-transfected cells, versus untreated: nruns Ctr, Arg9, Arg11 = 12, 16, 16
Protocol: (§5) 10–20 µL of freshly thawed and vortexed homogenate was added to 250 µL of “assay” buffer, containing (in mmol/L) 165 KCl, 22 Hepes, 7.5 oxalate, 11 NaN3, 0.0055 TPEN, 4.5 MgCl2, 9 Tris HCl, and 0.002 Fura-2 salt (pH 7.0, 37 °C). Each CPP was added to attain a final concentration of 40 µmol/L and incubated for 5 min at 37 °C prior to experiments.
(§6) Ca^2+ fluxes were monitored as Fura-2 fluorescence ratio (340 nm/390 nm) using a Hidex Sense Multimodal Microplate Reader (Kem-En-Tec Nordic AS, Uppsala, Sweden). Ca^2+ uptake by the vesicles was initiated by the addition of Na4ATP (2.2 mmol/L) and blocked by the application of thapsigargin (1.5 µmol/L) after 12 min [16]. SR Ca^2+ content, i.e., the “releasable Ca^2+” was estimated by adding the ryanodine receptor opener 4-Chloro-m-cresol (CmC, 5.5 mmol/L). The fluorescence ratio was calibrated to [Ca^2+] using the following equation: [Ca^2+] = Kd × ((R − Rmin)/(Rmax − R)) × (Sf2/Sb2), where R is the 340 nm/390 nm fluorescence ratio, and Kd is the dissociation constant of Fura-2 and Ca^2+ (224 nmol/L). Rmin is the fluorescence ratio at very low [Ca^2+] and Rmax is the ratio at saturating [Ca^2+], obtained by sequentially adding 3.3 mmol/L EGTA and 4.8 mmol/L CaCl2 to the well at the end of each recording. Sf2/Sb2 is the ratio of measured fluorescence intensity at 390 nm when Fura-2 is Ca^2+-free (3.3 mmol/L EGTA) or Ca^2+-bound (4.8 mmol/L CaCl2).
(§7) Ca^2+ recordings were smoothed using TableCurve 2D (V 5.01, Systat Software Inc., Palo Alto, CA, USA) prior to analysis. After the addition of Na4ATP, the rate constant for Ca^2+ uptake (k) was calculated by fitting the uptake curve to Ca^2+ = Ca^2+0 + ae^−t×k (Sigmaplot V14.0, Systat Software Inc.). Ca^2+ leak from the vesicles was calculated as the linear rise (slope) of the Ca^2+ signal after blockade of SERCA by thapsigargin. Leak measurements were normalized to SR content, determined as the peak [Ca^2+] after addition of CmC. […]

[7] = system: rat SERCA2b; assay: Oxalate-supported Ca2+ uptake in homogenates of HEK293 cells transfected with SERCA2b; type: biochemical; conditions: for Ca2+ uptake, SERCA2b-transfected cells, versus untreated: nruns Ctr, Arg9, Arg11 = 12, 12, 12
Protocol: as §5, §6, §7

[8] = system: rat SERCA1; assay: Oxalate-supported Ca2+ uptake in homogenates of HEK293 cells transfected with SERCA1; type: biochemical; conditions: nruns Ctr, Arg9, Arg11 = 4, 5, 5
Protocol: as §5
(§8) Ca^2+ fluxes were monitored as Fura-2 fluorescence ratio (340 nm/390 nm) using a Hidex Sense Multimodal Microplate Reader (Kem-En-Tec Nordic AS, Uppsala, Sweden). Ca^2+ uptake by the vesicles was initiated by the addition of Na4ATP (2.2 mmol/L) and blocked by the application of thapsigargin (1.5 µmol/L) after 12 min [16]. […] The fluorescence ratio was calibrated to [Ca^2+] using the following equation: [Ca^2+] = Kd × ((R − Rmin)/(Rmax − R)) × (Sf2/Sb2), where R is the 340 nm/390 nm fluorescence ratio, and Kd is the dissociation constant of Fura-2 and Ca^2+ (224 nmol/L). Rmin is the fluorescence ratio at very low [Ca^2+] and Rmax is the ratio at saturating [Ca^2+], obtained by sequentially adding 3.3 mmol/L EGTA and 4.8 mmol/L CaCl2 to the well at the end of each recording. Sf2/Sb2 is the ratio of measured fluorescence intensity at 390 nm when Fura-2 is Ca^2+-free (3.3 mmol/L EGTA) or Ca^2+-bound (4.8 mmol/L CaCl2). […]

[9] = system: rat SERCA3; assay: Oxalate-supported Ca2+ uptake in homogenates of HEK293 cells transfected with SERCA3; type: biochemical; conditions: nruns Ctr, Arg9, Arg11 = 4, 5, 5
Protocol: as §5, §8

[10] = biological target: T1, 12xHis-SERCA2(111-253) (UniProt P16615 111-253); assay: SPR; Biacore X100; biotinylated Arg11 immobilised on an SA chip at 744.3 RU; 12xHis-SERCA2(111-253) injected at 0.7–200 nM, 0.19–50 nM or 12.5–200 nM, 30 µL/minute for 180 s; dissociation 600 or 1000 s; 1 × Biacore running buffer; one-to-one Langmuir model; conditions: both partners purified
T1 construct: also called recombinant SERCA2 polypeptide containing the A-domain; actuator domain of SERCA2; source: recombinant, generated by Genscript; dialysed into Biacore running buffer for SPR
T1 sequence (P16615 111-253): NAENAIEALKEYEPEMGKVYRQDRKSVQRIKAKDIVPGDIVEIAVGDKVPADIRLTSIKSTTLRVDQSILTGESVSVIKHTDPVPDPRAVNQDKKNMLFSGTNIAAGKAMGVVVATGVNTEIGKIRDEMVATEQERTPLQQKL

Row | Molecule | Ca2+ uptake rate in EDL, effect versus untreated control [1] | Ca2+ uptake rate, effect versus untreated control [2] | Ca2+ uptake rate in soleus, effect versus untreated control [3] | Ca2+ uptake, PLB knockout, effect versus untreated control [4] | effect on Ca2+ transient decay (tau), in words [5] | Ca2+ uptake, SERCA2a-transfected cells, versus untreated [6] | Ca2+ uptake, SERCA2b-transfected cells, versus untreated [7] | Ca2+ uptake rate, SERCA1-transfected cells, versus untreated [8] | Ca2+ uptake rate, SERCA3-transfected cells, versus untreated [9] | inhibition of Ca2+ uptake compared with Arg9, SERCA2a ([6]; comparison Arg11 versus Arg9) | inhibition of Ca2+ uptake compared with Arg9, SERCA2b ([7]; comparison Arg11 versus Arg9) | increase in tau value for Ca2+ removal (Ca2+ transient decay) ([5]; p = 0.021, ncells Ctr 37, Arg11 31, 4 hearts) [%] | Kd [10] [nM] | koff [10] [s⁻¹] | kon [10] [M⁻¹ s⁻¹]
1 | RKKRRQRRR [TAT, reference compound] | did not observe inhibition of SERCA2 activity | no significant effect | did not alter the rate of Ca^2+ uptake | did not observe inhibition of SERCA2 activity | No such effects were noted |  |  |  |  |  |  |  |  |  | 
2 | RRRRRRRRR [Arg9] |  | slowed Ca^2+ uptake, albeit to a lesser extent than Arg11 | lesser but statistically significant inhibition | lesser but statistically significant inhibition | No such effects were noted | significantly slowed Ca^2+ uptake | significantly slowed Ca^2+ uptake | Neither Arg9 nor Arg11 altered the Ca^2+ uptake rate | Neither Arg9 nor Arg11 altered the Ca^2+ uptake rate |  |  |  |  |  | 
3 | RRRRRRRRRRR [Arg11] |  | marked slowing of Ca^2+ uptake | most marked effect | tending to cause the most marked inhibition of Ca^2+ uptake | slowing of Ca^2+ transient decay | significantly slowed Ca^2+ uptake | significantly slowed Ca^2+ uptake | Neither Arg9 nor Arg11 altered the Ca^2+ uptake rate | Neither Arg9 nor Arg11 altered the Ca^2+ uptake rate | tended to be more marked than that induced by Arg9 | tended to be more marked than that induced by Arg9 | 14 |  |  | 
4 | Biotin-RRRRRRRRRRR (polyarginine cell-penetrating peptide of 11 arginines; Peptides were synthesized with or without the N-terminal biotin; ELISA and SPR used the biotinylated form; also called biotinylated Arg11; polyarginine CPP; source: synthetic peptide (GenScript Biotech Corp, >80% purity)) [biotin-Arg11] |  |  |  |  |  |  |  |  |  |  |  |  | 0.4 | 6.6e-05 | 210000
